Data reported in patent publication US12465603B2, “Phthalazinone based modulators for the treatment of disease” (Soley Therapeutics, Inc., priority 2022, dated 2025).

Experiments:
[1] = system: PA1 (ECACC, 90013101) cells; experiment: Cell viability assay (Cell Titre Glo, 72 hours) in PA1 cells; assay type: cell-based; settings: Homo sapiens, PA-1
Method in brief: (§1)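 10-point dose response, top final concentration 30 μM, 1 in 3 dilutions; 5000 cells per well added directly to compound. Incubated 72 hours at 37° C, 5% CO2, then viability read by Cell Titre Glo luminescence and IC50 curves fitted.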

[2] = system: A2058 (ATCC, CRL-11147) cells; experiment: Cell viability assay (Cell Titre Glo, 72 hours) in A2058 cells; assay type: cell-based; settings: Homo sapiens
Method in brief: as §1

SMILES | IC50 [1] [nM] | IC50 [2] [nM]
CCn1nc(C(=O)N2CCN(c3cc(F)c(F)cc3OC)CC2)c2ccccc2c1=O [Compound 144] | ≤ 1000 | ≤ 1000
CCn1nc(C(=O)N2CCN(c3ccc(F)cc3OC(F)F)CC2)c2ccccc2c1=O [Compound 145] | ≤ 1000 | 1000 to 10000
CCn1nc(C(=O)N2CCN(c3cccc(F)c3)CC2)c2ccccc2c1=O [Compound 146] | ≤ 1000 | ≤ 1000
CCn1nc(C(=O)N2CCN(c3ccccc3OCC(F)(F)F)CC2)c2ccccc2c1=O [Compound 147] | 1000 to 10000 | 1000 to 10000
CCOc1cc(F)ccc1N1CCN(C(=O)c2nn(CC)c(=O)c3ccccc23)CC1 [Compound 148] | ≤ 1000 | ≤ 1000
CCn1nc(C(=O)N2CCN(c3cccc(OC)c3F)CC2)c2ccccc2c1=O [Compound 149] | 1000 to 10000 | 10000 to 20000
CCn1nc(C(=O)N2CCN(c3ccc(F)c(OC)c3)CC2)c2ccccc2c1=O [Compound 150] | ≤ 1000 | ≤ 1000
CCn1nc(C(=O)N2CCN(c3cccc(C#N)c3OC)CC2)c2ccccc2c1=O [Compound 151, 3-(4-(3-ethyl-4-oxo-3,4-dihydrophthalazine-1-carbonyl)piperazin-1-yl)-2-methoxybenzonitrile] | 1000 to 10000 | 10000 to 20000
CCn1nc(C(=O)N2CCN(c3cc(OC)ncc3F)CC2)c2ccccc2c1=O [Compound 152] | > 20000 | > 20000
CCn1nc(C(=O)N2CCN(c3cccc(OC)c3Br)CC2)c2ccccc2c1=O [Compound 153] | 1000 to 10000 | 1000 to 10000
CCn1nc(C(=O)N2CCN(c3c(C)cccc3OC)CC2)c2ccccc2c1=O [Compound 154] | 1000 to 10000 | 1000 to 10000
CCn1nc(C(=O)N2CCN(c3cccc4c3CCO4)CC2)c2ccccc2c1=O [Compound 155] | ≤ 1000 | ≤ 1000
Cn1nc(C(=O)N2CCN(c3ccccc3)CC2)c2cc(F)ccc2c1=O [Compound 156, 6-fluoro-2-methyl-4-(4-phenylpiperazine-1-carbonyl)phthalazin-1-one] | 1000 to 10000 | 1000 to 10000
Cn1nc(C(=O)N2CCN(c3cccc(C#N)c3)CC2)c2cc(F)ccc2c1=O [Compound 157, 3-(4-(7-fluoro-3-methyl-4-oxo-3,4-dihydrophthalazine-1-carbonyl)piperazin-1-yl)benzonitrile] | ≤ 1000 | ≤ 1000
COc1ccncc1N1CCN(C(=O)c2nn(C)c(=O)c3ccc(F)cc23)CC1 [Compound 158] | ≤ 1000 | ≤ 1000
Cn1nc(C(=O)N2CCN(c3cncc(C4CC4)c3)CC2)c2cc(F)ccc2c1=O [Compound 159] | ≤ 1000 | ≤ 1000
Cc1cc(N2CCN(C(=O)c3nn(C)c(=O)c4ccc(F)cc34)CC2)ccn1 [Compound 161] | > 20000 | > 20000
Cc1cncc(N2CCN(C(=O)c3nn(C)c(=O)c4ccc(F)cc34)CC2)c1 [Compound 162] | ≤ 1000 | 1000 to 10000
COc1cc(N2CCN(C(=O)c3nn(C)c(=O)c4ccc(F)cc34)CC2)ccn1 [Compound 163] | > 20000 | > 20000
COCc1cncc(N2CCN(C(=O)c3nn(C)c(=O)c4ccc(F)cc34)CC2)c1 [Compound 164] | > 20000 | > 20000

SMILES | IC50 [1] [nM] | IC50 [2] [nM]
Cn1nc(C(=O)N2CCN(c3cncc(Cl)c3)CC2)c2cc(F)ccc2c1=O [Compound 165] | 1000 to 10000 | 1000 to 10000
CCc1ccncc1N1CCN(C(=O)c2nn(C)c(=O)c3ccc(F)cc23)CC1 [Compound 166] | ≤ 1000 | ≤ 1000
Cc1ccncc1N1CCN(C(=O)c2nn(C)c(=O)c3ccc(F)cc23)CC1 [Compound 167] | ≤ 1000 | ≤ 1000
Cn1nc(C(=O)N2CCN(c3cncnc3C3CC3)CC2)c2cc(F)ccc2c1=O [Compound 168] | ≤ 1000 | 1000 to 10000
COc1cccnc1N1CCN(C(=O)c2nn(C)c(=O)c3ccc(F)cc23)CC1 [Compound 169] | ≤ 1000 | 1000 to 10000
Cn1nc(C(=O)N2CCN(c3ccccc3)CC2)c2cnccc2c1=O [Compound 170, 2-methyl-4-(4-phenylpiperazine-1-carbonyl)pyrido[3,4-d]pyridazin-1-one] | > 20000 | > 20000
Cn1nc(C(=O)N2CCN(c3ccccc3)CC2)c2ccncc2c1=O [Compound 171, 3-methyl-1-(4-phenylpiperazine-1-carbonyl)pyrido[3,4-d]pyridazin-4-one] | > 20000 | > 20000
COc1cccc(N2CCN(C(=O)c3nn(C)c(=O)c4cnccc34)CC2)c1 [Compound 172, 1-(4-(3-methoxyphenyl)piperazine-1-carbonyl)-3-methylpyrido[3,4-d]pyridazin-4(3H)-one] | 1000 to 10000 | 1000 to 10000
COc1cccc(N2CCN(C(=O)c3nn(C)c(=O)c4ccncc34)CC2)c1 [Compound 173, 4-(4-(3-methoxyphenyl)piperazine-1-carbonyl)-2-methylpyrido[3,4-d]pyridazin-1(2H)-one] | ≤ 1000 | 1000 to 10000
COc1cc(F)ccc1N1CCN(C(=O)c2nn(C)c(=O)c3ccncc23)CC1 [Compound 174] | 1000 to 10000 | 10000 to 20000
COc1ccccc1N1CCN(C(=O)c2nn(C)c(=O)c3ccncc23)CC1 [Compound 175] | ≤ 1000 | 1000 to 10000
COc1cc(F)cc(N2CCN(C(=O)c3nn(C)c(=O)c4ccncc34)CC2)c1 [Compound 176] | ≤ 1000 | ≤ 1000
Cn1nc(C(=O)N2CCN(c3ccccc3C3CC3)CC2)c2cnccc2c1=O [Compound 177] | ≤ 1000 | ≤ 1000
COc1cc(F)ccc1N1CCN(C(=O)c2nn(C)c(=O)c3cnccc23)CC1 [Compound 178] | > 20000 | > 20000
COc1ccccc1N1CCN(C(=O)c2nn(C)c(=O)c3cnccc23)CC1 [Compound 179] | 1000 to 10000 | 1000 to 10000
COc1cc(F)cc(N2CCN(C(=O)c3nn(C)c(=O)c4cnccc34)CC2)c1 [Compound 180] | ≤ 1000 | 1000 to 10000
Cn1nc(C(=O)N2CCN(c3ccccc3C3CC3)CC2)c2ccncc2c1=O [Compound 181] | ≤ 1000 | ≤ 1000
COc1cccc(N2CCN(C(=O)c3nn(C)c(=O)c4ncccc34)CC2)c1 [Compound 182, 5-(4-(3-methoxyphenyl)piperazine-1-carbonyl)-7-methylpyrido[2,3-d]pyridazin-8(7H)-one] | > 20000 | > 20000
COc1ccccc1N1CCN(C(=O)c2nn(C)c(=O)c3ncccc23)CC1 [Compound 183] | 10000 to 20000 | > 20000
COc1cc(F)cc(N2CCN(C(=O)c3nn(C)c(=O)c4ncccc34)CC2)c1 [Compound 184, 5-(4-(3-fluoro-5-methoxyphenyl)piperazine-1-carbonyl)-7-methylpyrido[2,3-d]pyridazin-8(7H)-one] | 1000 to 10000 | 10000 to 20000

SMILES | IC50 [1] [nM] | IC50 [2] [nM]
Cn1nc(C(=O)N2CCN(c3nnccc3C3CC3)CC2)c2ccccc2c1=O [Compound 185, 4-[4-(4-cyclopropylpyridazin-3-yl)piperazine-1-carbonyl]-2-methyl-phthalazin-1-one] | 1000 to 10000 | 1000 to 10000
CCn1nc(C(=O)N2CCN(c3ccc(F)c4c3OCC4)CC2)c2ccccc2c1=O [Compound 186, 2-ethyl-4-(4-(4-fluoro-2,3-dihydrobenzofuran-7-yl)piperazine-1-carbonyl)phthalazin-1(2H)-one] | ≤ 1000 | ≤ 1000
CCn1nc(C(=O)N2CCN(c3ccnc4c3OCC4)CC2)c2ccccc2c1=O [Compound 187] | ≤ 1000 | ≤ 1000
CCn1nc(C(=O)N2CCN(c3ccc(F)c4c3CCO4)CC2)c2ccccc2c1=O [Compound 188] | ≤ 1000 | ≤ 1000
Cn1nc(C(=O)N2CCN(c3ccnc4c3OCC4)CC2)c2ccccc2c1=O [Compound 189] | ≤ 1000 | ≤ 1000
Cn1nc(C(=O)N2CCN(c3cncc4c3OCC4)CC2)c2ccccc2c1=O [Compound 190] | ≤ 1000 | ≤ 1000
Cn1nc(C(=O)N2CCN(c3cccc4cnn(C)c34)CC2)c2ccccc2c1=O [Compound 191] | > 20000 | > 20000
Cn1nc(C(=O)N2CCN(c3cccn4ccnc34)CC2)c2ccccc2c1=O [Compound 192] | 1000 to 10000 | 10000 to 20000
Cn1nc(C(=O)N2CCN(c3ccnc4cnn(C)c34)CC2)c2ccccc2c1=O [Compound 193] | > 20000 | > 20000
Cn1nc(C(=O)N2CCN(c3nccc4sccc34)CC2)c2ccccc2c1=O [Compound 194] | 1000 to 10000 | 10000 to 20000
Cn1nc(C(=O)N2CCN(c3nccc4occc34)CC2)c2ccccc2c1=O [Compound 195] | 10000 to 20000 | 10000 to 20000
Cn1nc(C(=O)N2CCN(c3nccn4ccnc34)CC2)c2ccccc2c1=O [Compound 196] | > 20000 | > 20000
Cn1nc(C(=O)N2CCN(c3cc(F)cc(OC(F)(F)F)c3)CC2)c2ccccc2c1=O [Compound 197] | ≤ 1000 | 1000 to 10000
Cn1nc(C(=O)N2CCN(c3cc(F)cc(OC(F)F)c3)CC2)c2ccccc2c1=O [Compound 198] | ≤ 1000 | ≤ 1000
Cn1nc(C(=O)N2CCN(c3cc(C#N)cc(OC(F)F)c3)CC2)c2ccccc2c1=O [Compound 199] | ≤ 1000 | ≤ 1000
Cn1nc(C(=O)N2CCN(c3cc(C#N)ccc3C(F)F)CC2)c2ccccc2c1=O [Compound 200] | 1000 to 10000 | 1000 to 10000
Cn1nc(C(=O)N2CCN(c3cc(C#N)cc(C(F)F)c3)CC2)c2ccccc2c1=O [Compound 201] | ≤ 1000 | ≤ 1000
Cn1nc(C(=O)N2CCN(c3ccc4nccn4c3)CC2)c2ccccc2c1=O [Compound 202] | > 20000 | > 20000
Cn1nc(C(=O)N2CCN(c3ccc4ccnn4c3)CC2)c2ccccc2c1=O [Compound 203] | > 20000 | > 20000
